Measured values taken from US20250305004A1, “ENHANCING GENE TARGETING EFFICIENCY IN HUMAN CELLS WITH DNA-PK INHIBITOR TREATMENT” (The Board of Trustees of the Leland Stanford Junior …, priority 2022, published 2025).

How the values were obtained:
CCR5 locus in PSCs = assay: RNP/AAV6 gene targeting at CCR5 locus, knock-in of UBC-GFP-bGHpA (2.6 kb), PSCs; assay type: cell-based, human; conditions: tested at 1, 0.1 and 0.01 μM
Experimental: (§1) Gene targeting efficiency was measured by droplet digital PCR (ddPCR) and flow cytometry (for GFP) to measure the allelic targeting efficiency (FIG. 2B) and percentage of targeted cells (FIG. 2C) respectively. […] The treatment was carried out for 24 hours post gene targeting and the efficiency was calculated 1 week post gene targeting using ddPCR analysis.
PSC culture and genome editing. […] For each nucleofection, RNP complex was prepared with 5 μg of Cas9 protein and 2 μg of gRNA and incubated for 15 mins at room temperature. PSCs were dissociated into single cells using Accutase (Innovative Cell Technologies, cat: AT104). […] Gene targeting efficiency was analyzed at 4-6 days post-editing.
(§2) ddPCR analysis of targeted integration. Gene targeting efficiency for the knock-in of multi-kb sequences was measured through digital droplet PCR (ddPCR) analysis. […] After PCR, the droplets were analyzed using the QX200 Droplet Digital PCR reader (Biorad) and Quantasoft software was used to determine the number of copies of the target and reference DNA in the droplets. The allelic gene targeting efficiency was calculated as the percentage of target DNA copies relative to that of the reference. […]
(§3) ICE analysis for quantification of gene editing. […] Following PCR, the amplicons were detected on agarose gel and purified from the gel using GeneJet Gel Extraction Kit (Thermo Fisher Scientific, cat: K0692). […]

HBB locus in PSCs = assay: RNP/AAV6 gene targeting at HBB locus in PSCs; assay type: cell-based, human; conditions: UBC-GFP-bGHpA knock-in; 0.5 μM
Experimental: as §1
(§4) First, we tested the treatment for editing the sickle cell disease (SCD) and cystic fibrosis (CF) mutations at HBB and CFTR loci respectively using the previously described Cas9 RNP and AAV6 donor reagents in WT PSC^71-73 (FIG. 19a-d).
PSC culture and genome editing. […] Gene targeting efficiency was analyzed at 4-6 days post-editing.
as §2, §3

HBA1 locus in PSCs = assay: RNP/AAV6 gene targeting / gene replacement at HBA1 locus in PSCs; assay type: cell-based, human
Experimental: as §1, §4
PSC culture and genome editing. […] For each nucleofection, RNP complex was prepared with 5 μg of Cas9 protein and 2 μg of gRNA and incubated for 15 mins at room temperature. PSCs were dissociated into single cells using Accutase (Innovative Cell Technologies, cat: AT104). […] Resuspended cells were added to one well of a 16-well Nucleocuvette Strip (Lonza) and nucleofection was performed in the 4D nucleofector (Lonza) using the program, CA137. Nucleofected PSCs were plated in mTeSR1 medium supplemented with 10 μM of Y27632 at a density of 100,000 cells per well in 48-well plate, AAV6 vector and DNA-PKcs inhibitors were added to the medium at indicated concentrations. […] From the following day, PSCs were cultured in mTeSR1 without Y27632. Gene targeting efficiency was analyzed at 4-6 days post-editing.
as §2, §3

ATM = target: T1, ATM (Homo sapiens, UniProt Q13315); conditions: A549 cells; cited from earlier work
T1 construct: various PI3K family kinases in A549 cells (data adapted from previous study); host or cells: A549 cells

ATR = target: T2, ATR (Homo sapiens, UniProt Q13535); conditions: A549 cells; cited from earlier work
T2 construct: various PI3K family kinases in A549 cells (data adapted from previous study); host or cells: A549 cells

PI3Kγ = target: T3, PI3Kγ (Homo sapiens, UniProt P48736); conditions: A549 cells; cited from earlier work
T3 construct: various PI3K family kinases in A549 cells (data adapted from previous study); host or cells: A549 cells
T3 sequence (P48736 whole entry): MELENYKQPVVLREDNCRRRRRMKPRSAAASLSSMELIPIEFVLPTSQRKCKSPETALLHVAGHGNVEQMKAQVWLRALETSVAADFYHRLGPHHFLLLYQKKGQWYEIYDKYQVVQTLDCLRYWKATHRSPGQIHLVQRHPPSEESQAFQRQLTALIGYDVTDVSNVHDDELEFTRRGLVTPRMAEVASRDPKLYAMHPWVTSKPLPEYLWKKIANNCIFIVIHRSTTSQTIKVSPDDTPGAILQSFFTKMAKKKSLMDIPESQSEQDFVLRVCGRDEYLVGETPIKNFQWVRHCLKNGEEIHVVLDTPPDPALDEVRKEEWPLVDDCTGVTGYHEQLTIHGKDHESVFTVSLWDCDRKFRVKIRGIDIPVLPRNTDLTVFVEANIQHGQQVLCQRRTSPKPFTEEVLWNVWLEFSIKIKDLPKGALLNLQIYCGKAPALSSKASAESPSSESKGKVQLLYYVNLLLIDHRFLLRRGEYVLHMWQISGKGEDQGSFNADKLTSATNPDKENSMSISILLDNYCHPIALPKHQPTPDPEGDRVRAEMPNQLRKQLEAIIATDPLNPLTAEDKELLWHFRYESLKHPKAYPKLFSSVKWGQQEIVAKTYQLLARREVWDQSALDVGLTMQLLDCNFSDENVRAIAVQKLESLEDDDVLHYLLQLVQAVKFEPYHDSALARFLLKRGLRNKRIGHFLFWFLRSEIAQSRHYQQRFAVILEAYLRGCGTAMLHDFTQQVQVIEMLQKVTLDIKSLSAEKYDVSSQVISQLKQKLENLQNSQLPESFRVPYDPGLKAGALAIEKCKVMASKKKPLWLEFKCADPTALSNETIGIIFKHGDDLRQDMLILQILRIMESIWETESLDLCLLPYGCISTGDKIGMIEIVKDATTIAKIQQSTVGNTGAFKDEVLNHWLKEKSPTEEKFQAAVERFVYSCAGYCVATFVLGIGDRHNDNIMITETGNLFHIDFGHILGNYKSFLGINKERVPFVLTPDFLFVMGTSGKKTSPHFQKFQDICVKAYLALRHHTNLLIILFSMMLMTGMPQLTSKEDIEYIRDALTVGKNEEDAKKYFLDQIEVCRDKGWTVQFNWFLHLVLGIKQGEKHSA

T2 sequence (Q13535 whole entry): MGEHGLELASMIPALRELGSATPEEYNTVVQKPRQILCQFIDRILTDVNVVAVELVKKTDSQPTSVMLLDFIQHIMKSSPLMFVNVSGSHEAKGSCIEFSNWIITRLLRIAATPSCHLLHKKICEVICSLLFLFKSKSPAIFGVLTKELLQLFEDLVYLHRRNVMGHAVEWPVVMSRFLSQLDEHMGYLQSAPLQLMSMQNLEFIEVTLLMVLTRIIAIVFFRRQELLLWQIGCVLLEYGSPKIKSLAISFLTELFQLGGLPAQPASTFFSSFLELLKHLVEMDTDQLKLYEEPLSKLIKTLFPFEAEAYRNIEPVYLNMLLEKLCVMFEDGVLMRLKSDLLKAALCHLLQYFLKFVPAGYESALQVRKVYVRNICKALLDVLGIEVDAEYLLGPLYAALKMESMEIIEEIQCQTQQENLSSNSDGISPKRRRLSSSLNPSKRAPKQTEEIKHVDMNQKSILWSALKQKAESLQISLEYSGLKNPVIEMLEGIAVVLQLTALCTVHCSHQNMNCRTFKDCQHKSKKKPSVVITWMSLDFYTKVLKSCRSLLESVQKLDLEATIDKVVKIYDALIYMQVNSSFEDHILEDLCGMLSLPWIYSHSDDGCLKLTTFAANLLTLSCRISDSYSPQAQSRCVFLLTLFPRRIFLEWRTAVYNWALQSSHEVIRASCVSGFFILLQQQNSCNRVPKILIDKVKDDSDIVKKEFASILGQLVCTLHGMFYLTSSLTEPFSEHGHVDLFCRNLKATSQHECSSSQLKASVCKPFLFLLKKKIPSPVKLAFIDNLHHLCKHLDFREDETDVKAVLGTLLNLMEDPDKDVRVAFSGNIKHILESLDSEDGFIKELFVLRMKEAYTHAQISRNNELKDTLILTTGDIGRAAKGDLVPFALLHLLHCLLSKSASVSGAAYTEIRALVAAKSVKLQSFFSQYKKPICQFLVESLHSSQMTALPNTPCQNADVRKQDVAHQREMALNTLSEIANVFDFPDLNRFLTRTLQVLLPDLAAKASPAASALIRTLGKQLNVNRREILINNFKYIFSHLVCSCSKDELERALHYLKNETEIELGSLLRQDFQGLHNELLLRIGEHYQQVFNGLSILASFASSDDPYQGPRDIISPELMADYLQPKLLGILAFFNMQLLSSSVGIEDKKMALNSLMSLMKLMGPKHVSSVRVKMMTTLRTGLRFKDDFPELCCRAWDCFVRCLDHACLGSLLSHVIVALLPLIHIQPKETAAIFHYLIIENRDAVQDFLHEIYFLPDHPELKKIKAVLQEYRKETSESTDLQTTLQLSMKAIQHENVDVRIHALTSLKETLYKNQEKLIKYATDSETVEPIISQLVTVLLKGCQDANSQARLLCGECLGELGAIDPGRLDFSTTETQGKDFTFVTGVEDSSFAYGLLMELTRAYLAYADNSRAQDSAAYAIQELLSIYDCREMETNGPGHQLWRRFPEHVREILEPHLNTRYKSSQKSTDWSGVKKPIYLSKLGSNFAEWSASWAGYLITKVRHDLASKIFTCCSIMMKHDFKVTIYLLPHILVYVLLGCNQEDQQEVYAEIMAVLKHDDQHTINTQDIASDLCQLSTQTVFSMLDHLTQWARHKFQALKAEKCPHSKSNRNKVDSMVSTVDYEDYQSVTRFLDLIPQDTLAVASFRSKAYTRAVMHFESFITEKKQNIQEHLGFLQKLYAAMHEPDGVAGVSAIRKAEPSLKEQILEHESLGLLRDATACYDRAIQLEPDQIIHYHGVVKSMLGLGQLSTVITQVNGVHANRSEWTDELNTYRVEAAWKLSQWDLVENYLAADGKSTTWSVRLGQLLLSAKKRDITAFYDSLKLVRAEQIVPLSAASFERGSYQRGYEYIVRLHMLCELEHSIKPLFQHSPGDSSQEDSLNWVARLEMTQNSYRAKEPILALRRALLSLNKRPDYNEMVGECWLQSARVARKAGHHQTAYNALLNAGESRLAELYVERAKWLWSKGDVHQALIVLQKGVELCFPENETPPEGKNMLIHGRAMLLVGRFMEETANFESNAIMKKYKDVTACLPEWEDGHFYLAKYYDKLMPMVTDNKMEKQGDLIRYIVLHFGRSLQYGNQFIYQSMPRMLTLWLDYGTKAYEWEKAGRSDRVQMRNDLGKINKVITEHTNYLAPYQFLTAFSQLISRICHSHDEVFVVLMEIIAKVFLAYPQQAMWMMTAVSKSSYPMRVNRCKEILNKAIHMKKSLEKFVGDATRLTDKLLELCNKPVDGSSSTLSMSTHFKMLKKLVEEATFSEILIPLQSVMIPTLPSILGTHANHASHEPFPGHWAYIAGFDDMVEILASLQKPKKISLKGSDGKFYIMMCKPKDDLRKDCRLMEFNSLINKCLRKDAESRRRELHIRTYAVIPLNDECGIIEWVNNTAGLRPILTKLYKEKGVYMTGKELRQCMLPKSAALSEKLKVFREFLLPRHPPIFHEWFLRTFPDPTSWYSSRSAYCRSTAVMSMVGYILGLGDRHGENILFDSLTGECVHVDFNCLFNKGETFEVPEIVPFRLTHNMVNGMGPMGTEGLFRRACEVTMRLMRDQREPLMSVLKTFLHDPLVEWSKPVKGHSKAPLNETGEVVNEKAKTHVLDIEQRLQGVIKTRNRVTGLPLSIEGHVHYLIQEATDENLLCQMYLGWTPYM
T2 sequence (Q8WXE1 whole entry partner): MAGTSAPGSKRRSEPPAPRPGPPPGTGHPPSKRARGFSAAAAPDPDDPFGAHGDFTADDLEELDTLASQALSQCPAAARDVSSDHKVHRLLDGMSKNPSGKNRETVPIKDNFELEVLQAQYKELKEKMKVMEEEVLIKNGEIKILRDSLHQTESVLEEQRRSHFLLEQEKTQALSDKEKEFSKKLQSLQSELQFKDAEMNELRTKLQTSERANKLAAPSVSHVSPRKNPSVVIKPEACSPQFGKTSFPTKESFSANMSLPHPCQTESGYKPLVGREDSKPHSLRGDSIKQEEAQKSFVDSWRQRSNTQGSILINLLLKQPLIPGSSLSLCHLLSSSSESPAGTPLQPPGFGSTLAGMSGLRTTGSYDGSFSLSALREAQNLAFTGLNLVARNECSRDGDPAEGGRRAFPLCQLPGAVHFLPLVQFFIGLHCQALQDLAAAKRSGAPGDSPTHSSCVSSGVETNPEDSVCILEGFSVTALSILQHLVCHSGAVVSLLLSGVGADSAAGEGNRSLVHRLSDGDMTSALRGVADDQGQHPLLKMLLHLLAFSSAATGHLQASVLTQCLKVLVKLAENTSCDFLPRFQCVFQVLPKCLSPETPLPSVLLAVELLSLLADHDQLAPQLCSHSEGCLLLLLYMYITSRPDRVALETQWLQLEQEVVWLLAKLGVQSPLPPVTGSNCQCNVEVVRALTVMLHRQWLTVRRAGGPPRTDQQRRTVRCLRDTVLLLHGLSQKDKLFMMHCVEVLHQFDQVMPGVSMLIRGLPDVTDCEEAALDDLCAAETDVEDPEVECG

## COc1ccc([C@@H](O)c2cc(-c3ncnc4cc(N5CCOCC5)ccc34)c(F)cc2Cl)nn1 [M3814]
CCR5 locus in PSCs
  concentration at which gene targeting is enhanced: effective only at 1 μM
HBB locus in PSCs
  effect on gene targeting vs untreated: less prominent effect
HBA1 locus in PSCs; 0.5 μM
  effect on gene targeting vs untreated: less prominent effect
HBA1 locus in PSCs; tested at 2 and 0.5 μM
  concentration at which gene replacement is improved: effective only at the higher concentration
ATM
  IC50: > 30 µM
ATR
  IC50: > 30 µM
PI3Kγ
  IC50: 1.59 µM
